pIC50: −log10 of the molar value.
Assays:
[1] = test system: H358. non-small cell lung cancer line bearing KRas^G12C oncogenic mutation; experiment: Antiproliferative MTS assay, H358 cells; assay type: cell-based; conditions: Homo sapiens, NCI-H358, 72 h, compounds 1-23, 47-52 and Reference Example 1 median of experiments, 24-46 estimations and/or preliminary results, read-out: IC50 values: cell proliferation inhibition, H358
Description: Cell line #2: H358. non-small cell lung cancer line bearing KRas^G12C oncogenic mutation
(§1) Cell lines were cultured in DMEM or RPMI-1640 supplemented with FBS 10%. In order to assess the antiproliferative effect of compounds, cells were seeded at a density of 1.8×10^3, 6.2×10^3, 7.8×10^3, 21×10^3 and 2×10^3 cells/cm^2, respectively, in tissue culture microplates and were incubated in humidified atmosphere at 5% CO2. 24 h later, compounds dissolved in DMSO 100% were added for different final concentrations ranging between 0.1 and 50 μM for a final DMSO concentration of 0.5% and the plates were incubated for another 72 h. After incubation, proliferation was quantified using CellTiter 96® Aqueous Non-Radioactive Cell Proliferation Assay-MTS (Promega #G5421) following manufacturer instructions. Amount of 490 nm absorbance is directly proportional to the number of living cells. Absorbance was recorded with a BMG Fluostar Optima Microplate Reader and normalized to control with vehicle.

[2] = test system: PANC-1. epithelioid carcinoma of the pancreas cell line bearing KRas^G12D oncogenic mutation; experiment: Antiproliferative MTS assay, PANC-1 cells; assay type: cell-based; conditions: Homo sapiens, PANC-1, 72 h, compounds 1-23 and 47-52 median of experiments, 24-46 estimations and/or preliminary results, read-out: IC50 values: cell proliferation inhibition, Panc-1
Description: Cell line #3: PANC-1. epithelioid carcinoma of the pancreas cell line bearing KRas^G12D oncogenic mutation
as §1

[3] = test system: RPMI. myeloma cell line bearing KRas^G12A oncogenic mutation; experiment: Antiproliferative MTS assay, RPMI cells; assay type: cell-based; conditions: 72 h, compounds 1-23 and 47-52 median of experiments, 24-46 estimations and/or preliminary results, read-out: IC50 values: cell proliferation inhibition, RPMI
Description: Cell line #4: RPMI. myeloma cell line bearing KRas^G12A oncogenic mutation
as §1

[4] = test system: A549. Lung carcinoma cell line bearing KRas^G12S oncogenic mutation; experiment: Antiproliferative MTS assay, A549 cells; assay type: cell-based; conditions: Homo sapiens, A549, 72 h, compounds 1-23 and 47-52 median of experiments, 24-46 estimations and/or preliminary results, read-out: IC50 values: cell proliferation inhibition, A549
Description: Cell line #1: A549. Lung carcinoma cell line bearing KRas^G12S oncogenic mutation
as §1

NIH-H358 Cell Line = experiment: 3D CellTiter-Glo cell viability assay; assay type: cell-based; conditions: 168 h, NIH-H358 cells in 0.65% methylcellulose, 7 days' compound treatment
Description: Example 5: Efficacy Testing in 3D Viability Assay for NIH-H358 Cell Line
The protocol to perform 3D CellTiter-Glo™ cell viability assay is as follows:
Day—1: Cell plating • Adjust cell concentrations to 1×10^5 cells/ml with respective medium. (Cell concentration is adjusted according to data base or density optimization assay). Mix 3.5 mL of cell suspension 6.5 mL of 1% methylcellulose. Mix and wait for bubbles to disperse before pipetting. This step yields 10 ml of cell suspension in 0.65% methylcellulose solution. Add 99.5 μL cell suspensions to 96-well plates according to plate map with final cell density. • Two duplicate plates will be set up. One is for day 0 reading (T0) and the other will be cultured in incubator for reading at the end point. • Incubate the plates overnight in humidified incubator at 37° C. with 5% CO2.
Day 0: T0 plate reading and compound treatment • Take T0 plate, add 0.5 μL culture medium to each well for T0 reading. • Add 100 μl CellTiter-Glo® Reagent to each well. • Mix contents for 2 minutes on an orbital shaker to facilitate cell lysis. • Allow the plate to incubate at room temperature for 10 minutes to stabilize luminescent signal. • Record luminescence using EnVision Multi Label Reader. • Dilute the test articles at the concentration indicated at Test Articles Dilution. Add 0.5 μL of each 200× compound working solutions according to plate inoculation map.
Day 7: Plate reading of 7 days' compound treatment • Add 100 μL CellTiter-Glo® Reagent to each well. • Mix contents for 2 minutes on an orbital shaker to facilitate cell lysis. • Allow the plate to incubate at room temperature for 10 minutes to stabilize luminescent signal. • Record luminescence using EnVision Multi Label Reader.

[5] = test system: subcutaneous NCI-H358 Human Lung Cancer Model; experiment: Efficacy in xenograft studies (tumor growth inhibition); assay type: in vivo, NCr nude mice; conditions: for Oral anti-tumor activity: 20 mg/kg BID peroral, subcutaneous NCI-H358 xenograft; for TGI (tumor growth inhibition): NCI-H358 xenograft, NCr nude mice
Excerpt: (§2) Evaluation of the efficacy of compounds 6, 11 and 13 in the treatment of subcutaneous NCI-H358 Human Lung Cancer Model in NCr nude mice.
(§3) The treatment with compound 6 started when the tumors size reached 170 mm^3 (study 1). This value was 190 mm^3 in the case of compounds 11 and 13 (study 2).
Studies endpoints: The major endpoints of the study included the following:
Tumor growth inhibition (TGI): TGI(%) is an indication of antitumor effectiveness, and it is expressed as: TGI (%)=100×(1−T/C). T and C were the mean tumor volume of the treated and control groups, respectively, on a given day.

[6] = Body weight and tolerability in xenograft studies; assay type: in vivo; conditions: 20 mg/kg BID peroral, mice bearing NCI-H358 xenograft
Excerpt: as §2, §3
The results of the body weight changes in the tumor bearing mice are shown in FIG. 1 (p.o. is peroral; i.p. is intraperitoneal). The body weight of the animals at the end of the treatment with the three compounds was only slightly below the body weight of the respective vehicle control groups.

[7] = Study 2: 20 mg/kg peroral BID × 27 days

pIC50 [1] | pIC50 [2] | pIC50 [3] | pIC50 [4] | pIC50 (NIH-H358 Cell Line) | Structure (SMILES) | Oral anti-tumor activity [5] | TGI (tumor growth inhibition) ([5]; Study 1: 20 mg/kg peroral BID × 29 days) | Tolerability / safety of dose [6] | TGI (tumor growth inhibition) [5, 7]
5.82 | 5.70 | 5.82 | 5.70 | < 6.00 | COc1cc(O)cc(CCOc2cc3c(cc2OC)CCN(C(=O)NCc2cocn2)C3c2ccc(C)cc2C)c1 (stereo not shown) [Compound 1] |  |  |  | 
6.40 | 6.52 | 6.70 | 6.00 | 6.52 | COc1ccc(CCOc2cc3c(cc2OC)CCN(C(=O)NCc2cocn2)C3c2ccc(C)cc2C)cc1O (stereo not shown) [Compound 2] |  |  |  | 
< 5.70 | < 5.70 | < 5.70 | < 5.70 | < 6.00 | COc1cc2c(cc1OCCc1cc(O)cc(Cl)c1)C(c1ccc(C)cc1C)N(C(=O)NCc1cocn1)CC2 (stereo not shown) [Compound 3] |  |  |  | 
6.70 | 6.40 | 6.52 | 6.05 | 6.25 | COc1ccc(CCOc2cc3c(cc2OC)CCN(C(=O)NCc2cocn2)C3c2ccc(C)cc2C)cc1N (stereo not shown) [Compound 4] |  |  |  | 
7.00 | 6.70 | 7.00 | 6.15 | 6.27 | CCNC(=O)N1CCc2cc(OC)c(OCCc3ccc(OC)c(O)c3)cc2C1c1ccc(C)cc1C (stereo not shown) [Compound 5, 1-(2,4-dimethylphenyl)-N-ethyl-7-(3-hydroxy-4-methoxyphenethoxy)-6-methoxy-3,4-dihydroisoquinoline-2(1H)-carboxamide] |  |  |  | 
6.05 | 6.10 | 6.22 | 6.22 | 6.27 | CCNC(=O)N1CCc2cc(OC)c(OCCc3ccc(F)c(N)c3)cc2C1c1ccc(C)cc1C (stereo not shown) [Compound 7] |  |  |  | 
6.70 | 6.70 | 6.70 | 6.05 | < 5.52 | CCNC(=O)N1CCc2cc(OC)c(OCCc3ccc(OC)c([N+](=O)[O-])c3)cc2C1c1ccc(C)cc1C (stereo not shown) [Compound 8] |  |  |  | 
6.40 | 6.52 | 6.70 | 6.00 | 6.19 | CCNC(=O)N1CCc2cc(OC)c(OCCc3ccc(N)c(OC)c3)cc2C1c1ccc(C)cc1C (stereo not shown) [Compound 9, 7-(4-amino-3-methoxyphenethoxy)-1-(2,4-dimethylphenyl)-N-ethyl-6-methoxy-3,4-dihydroisoquinoline-2(1H)-carboxamide] |  |  |  | 
6.52 | 6.70 | 7.00 | 6.05 | 6.44 | CCNC(=O)N1CCc2cc(OC)c(OCCc3ccc(OC)c(N)c3)cc2C1c1ccc(C(F)(F)F)cc1C (stereo not shown) [Compound 10] |  |  |  | 
6.22 | < 6.00 | 6.40 | < 5.70 | 6.02 | COc1ccc(CCOc2cc3c(cc2OC)CCN(C(=O)N[C@H](C)C(F)(F)F)C3c2ccc(C)cc2C)cc1N (stereo partly shown) [Compound 47] |  |  |  | 
7.00 | 6.30 | 7.40 | < 6.00 | 6.43 | COc1ccc(CCOc2cc3c(cc2OC)CCN(C(=O)N[C@@H](C)C(F)(F)F)C3c2ccc(C)cc2C)cc1N (stereo partly shown) [Compound 48] |  |  |  | 
6.30 | 6.70 | 6.82 | < 5.70 | 6.12 | COc1ccc(C2c3cc(OCCc4ccc(OC)c(N)c4)c(OC)cc3CCN2C(=O)N[C@@H](C)C(F)(F)F)c(C)c1 (stereo partly shown) [Compound 50] |  |  |  | 
6.82 | 7.15 | < 6.00 | 6.70 | 6.75 | CCNC(=O)N1CCc2cc(OC)c(OCCc3ccc(OC)c(N)c3)cc2C1c1ccc(Br)cc1C (stereo not shown) [Compound 51] |  |  |  | 
6.00 | 6.00 | 6.70 | < 5.70 | < 6.00 | CCNC(=O)N1CCc2cc(OC)c(OCCc3ccc(OC)c(N)c3)cc2C1c1ccc(N(C)C)cc1C (stereo not shown) [Compound 52] |  |  |  | 

Structure (SMILES) | pIC50 [1] | pIC50 [2] | pIC50 [3] | pIC50 [4] | pIC50 (NIH-H358 Cell Line) | Oral anti-tumor activity [5] | TGI (tumor growth inhibition) ([5]; Study 1: 20 mg/kg peroral BID × 29 days) | Tolerability / safety of dose [6] | TGI (tumor growth inhibition) [5, 7]
CCNC(=O)N1CCc2cc(OC)c(OCCc3ccc(OC)c(N)c3)cc2C1c1ccc(C)cc1C (stereo not shown) [Compound 6, 7-(3-amino-4-methoxyphenethoxy)-1-(2,4-dimethylphenyl)-N-ethyl-6-methoxy-3,4-dihydroisoquinoline-2(1H)-carboxamide] | 6.70 | 6.70 | 7.00 | 6.22 | 6.90 | significant oral anti-tumor activities | 27.09% | tolerate 20 mg/kg BID and safe | 
CCNC(=O)N1CCc2cc(OC)c(OCCc3ccc(OC)c(N)c3)cc2C1c1ccc(OC)cc1C (stereo not shown) [Compound 11] | 6.70 | 6.70 | 7.00 | 6.10 | 6.38 | significant oral anti-tumor activities |  | tolerate 20 mg/kg BID and safe | 48.22%
CCNC(=O)N1CCc2cc(OC)c(OCCc3ccc(OC)c(N)c3)cc2C1c1ccc(Cl)cc1C (stereo not shown) [Compound 13] | 6.52 | 6.52 | 7.00 | 6.00 | 6.83 | significant oral anti-tumor activities |  | tolerate 20 mg/kg BID and safe | 26.99%
